# US12590062B2, “PD-1/PD-L1 inhibitors” (Gilead Sciences, Inc., priority 2017, dated 2026)
# Target: T1, PD-1/PD-L1 interaction (Homo sapiens, UniProt Q9NZQ7)
# T1 construct: expressed in transfected cells; host or cells: CHO cells (aAPC-PD-L1) co-cultured with Jurkat cells overexpressing PD-1 and an NFAT-luciferase reporter
# Assay: PD-1/PD-L1 NFAT reporter co-culture assay
# Format: cell-based
# Settings: not given
# Procedure: PD-1/PD-L1 NEAT Reporter Assay:
# Compounds were tested in afunctional co-culture reporter assay in which TCR-mediated NFAT activity is inhibited by the engagement of PD-1 with PD-L1. […] CHO cells expressing surface-bound anti-CD3 antibodies and PD-L1 (artificial antigen presenting cells, aAPC-PD-L1) were first seeded overnight. Jurkat cells overexpressing PD-1 and expressing a luciferase construct under NFAT control are diluted in RPMI assay medium (RPMI 1640 with 2% FBS), mixed with compounds, and immediately seeded on the monolayer of aAPC-PD-L1. The co-culture is then incubated for 6 hrs at 37° C. Luciferase activity is assessed by adding the ONE-Glo reagent and measuring luminescence with a plate reader. EC50 values are calculated from the fit of the dose-response curves to a four-parameter equation (Table 3).
# T1 sequence (Q9NZQ7 19-290): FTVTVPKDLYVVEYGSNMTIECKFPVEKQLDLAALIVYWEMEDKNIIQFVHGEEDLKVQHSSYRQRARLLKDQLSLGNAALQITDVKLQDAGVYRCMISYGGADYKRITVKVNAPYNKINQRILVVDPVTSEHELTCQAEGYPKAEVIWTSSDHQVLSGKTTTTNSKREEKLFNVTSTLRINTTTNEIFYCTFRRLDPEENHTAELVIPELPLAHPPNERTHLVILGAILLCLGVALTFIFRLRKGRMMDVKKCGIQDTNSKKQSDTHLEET
row,SMILES,EC50 [nM]
1,"COc1nc(OCc2cccc(-c3cccc(COc4nc(OC)c(CNCc5cc(O)no5)cc4Cl)c3C)c2C)c(Cl)cc1CNCc1cc(O)no1 [Example 63, 5,5′-(((((((2,2′-dimethyl-[1,1′-biphenyl]-3,3′-diyl)bis(methylene))bis(oxy))bis(5-chloro-2-methoxypyridine-6,3-diyl))bis(methylene))bis(azanediyl))bis(methylene))bis(isoxazol-3-ol)]",≥ 50000

# Same assay, conditions: Jurkat PD-1 NFAT-luciferase cells co-cultured with aAPC-PD-L1 CHO cells, 6 hrs at 37° C.; read-out: EC50 NFAT Luciferase
row,SMILES,EC50 [nM]
1,"COc1nc(OCc2cccc(-c3cccc(COc4nc(OC)c(C(CC(=O)O)N(C)C)cc4Cl)c3C)c2C)c(Cl)cc1C(CC(=O)O)N(C)C (mixture of isomers) [Example 236, 3,3′-((((2,2′-dimethyl-[1,1′-biphenyl]-3,3′-diyl)bis(methylene))bis(oxy))bis(5-chloro-2-methoxypyridine-6,3-diyl))bis(3-(dimethylamino)propanoic acid)]",5030
2,"COc1nc(OCc2cccc(-c3cccc(COc4nc(OC)c(CN[C@@](C)(CO)C(=O)O)cc4Cl)c3C)c2C)c(Cl)cc1CN[C@@](C)(CO)C(=O)O [Example 44, (2S,2′S)-2,2′-((((((2,2′-dimethyl-[1,1′-biphenyl]-3,3′-diyl)bis(methylene))bis(oxy))bis(5-chloro-2-methoxypyridine-6,3-diyl))bis(methylene))bis(azanediyl))bis(3-hydroxy-2-methylpropanoic acid)]",62
3,"COc1nc(OCc2cccc(-c3cccc(COc4nc(OC)c(CN[C@](C)(CO)C(=O)O)cc4Br)c3C)c2C)c(Br)cc1CN[C@](C)(CO)C(=O)O [Example 46, (2R,2′R)-2,2′-((((((2,2′-dimethyl-[1,1′-biphenyl]-3,3′-diyl)bis(methylene))bis(oxy))bis(5-bromo-2-methoxypyridine-6,3-diyl))bis(methylene))bis(azanediyl))bis(3-hydroxy-2-methylpropanoic acid)]",87
4,"COc1nc(OCc2cccc(-c3cccc(COc4nc(OC)c(CN[C@@H](CO)C(=O)O)cc4Cl)c3C)c2C)c(Cl)cc1CN[C@@H](CO)C(=O)O [Example 50, (2S,2′S)-2,2′-((((((2,2′-dimethyl-[1,1′-biphenyl]-3,3′-diyl)bis(methylene))bis(oxy))bis(5-chloro-2-methoxypyridine-6,3-diyl))bis(methylene))bis(azanediyl))bis(3-hydroxypropanoic acid)]",76
5,"Cc1c(COc2cc(OCc3cncc(C#N)c3)c(CN3CCCC[C@H]3C(=O)O)cc2Cl)cccc1-c1cccc(COc2cc(OCc3cncc(C#N)c3)c(CN3CCCC[C@H]3C(=O)O)cc2Cl)c1C [Example 53, (2S,2′S)-1,1′-(((((2,2′-dimethyl-[1,1′-biphenyl]-3,3′-diyl)bis(methylene))bis(oxy))bis(5-chloro-2-((5-cyanopyridin-3-yl)methoxy)-4,1-phenylene))bis(methylene))bis(piperidine-2-carboxylic acid)]",722
6,"CCOC(=O)C[C@H](O)CNCc1cc(C2CC2)c(OCc2cccc(-c3cccc(COc4nc(OC)c(CNC[C@@H](O)CC(=O)O)cc4C4CC4)c3C)c2C)nc1OC [Example 56, (S)-4-(((5-cyclopropyl-6-((3′-(((3-cyclopropyl-5-((((S)-4-ethoxy-2-hydroxy-4-oxobutyl)amino)methyl)-6-methoxypyridin-2-yl)oxy)methyl)-2,2′-dimethyl-[1,1′-biphenyl]-3-yl)methoxy)-2-methoxypyridin-3-yl)methyl)amino)-3-hydroxybutanoic acid]",≥ 50000
7,"COc1nc(OCc2cccc(-c3cccc(COc4nc(OC)c(CN5CCc6[nH]cnc6C5C(=O)O)cc4Cl)c3C)c2C)c(Cl)cc1CN1CCc2[nH]cnc2C1C(=O)O (stereo not drawn) [Example 62, 5,5′-(((((2,2′-dimethyl-[1,1′-biphenyl]-3,3′-diyl)bis(methylene))bis(oxy))bis(5-chloro-2-methoxypyridine-6,3-diyl))bis(methylene))bis(4,5,6,7-tetrahydro-1H-imidazo[4,5-c]pyridine-4-carboxylic acid)]",19500
8,"COc1nc(OCc2cccc(-c3cccc(COc4nc(OC)c(CN[C@](C)(CO)C(=O)O)cc4C4CC4)c3C)c2C)c(C2CC2)cc1CN[C@](C)(CO)C(=O)O [Example 64, (2R,2′R)-2,2′-((((((2,2′-dimethyl-[1,1′-biphenyl]-3,3′-diyl)bis(methylene))bis(oxy))bis(5-cyclopropyl-2-methoxypyridine-6,3-diyl))bis(methylene))bis(azanediyl))bis(3-hydroxy-2-methylpropanoic acid)]",9780
9,"COc1nc(OCc2cccc(-c3cccc(COc4nc(OC)c(CN5CCC5C(N)=O)cc4Cl)c3C)c2C)c(Cl)cc1CN1CCC1C(N)=O (stereo not drawn) [Example 65, 1,1′-(((((2,2′-dimethyl-[1,1′-biphenyl]-3,3′-diyl)bis(methylene))bis(oxy))bis(5-chloro-2-methoxypyridine-6,3-diyl))bis(methylene))bis(azetidine-2-carboxamide)]",3350

# The next lines start with the values.
row,EC50 [nM],SMILES
1,19800,"COc1nc(OCc2cccc(-c3cccc(COc4nc(OC)c(CNC(CO)c5nn[nH]n5)cc4Cl)c3C)c2C)c(Cl)cc1CNC(CO)c1nn[nH]n1 (stereo not drawn) [Example 52, 2,2′-((((((2,2′-dimethyl-[1,1′-biphenyl]-3,3′-diyl)bis(methylene))bis(oxy))bis(5-chloro-2-methoxypyridine-6,3-diyl))bis(methylene))bis(azanediyl))bis(2-(2H-tetrazol-5-yl)ethan-1-ol)]"
2,894,"COc1nc(OCc2cccc(-c3cccc(COc4nc(OC)c(CN5CC(NC(C)=O)C5)cc4Cl)c3C)c2C)c(Cl)cc1CN1CC(NC(C)=O)C1 [Example 37, N,N′-((((((2,2′-dimethyl-[1,1′-biphenyl]-3,3′-diyl)bis(methylene))bis(oxy))bis(5-chloro-2-methoxypyridine-6,3-diyl))bis(methylene))bis(azetidine-1,3-diyl))diacetamide]"
3,384,"COc1nc(OCc2cccc(-c3cccc(COc4nc(OC)c(CN[C@@H]5CCC[C@H]5C(=O)O)cc4Cl)c3C)c2C)c(Cl)cc1CN[C@@H]1CCC[C@H]1C(=O)O [Example 75, (1R,1′R,2R,2′R)-2,2′-((((((2,2′-dimethyl-[1,1′-biphenyl]-3,3′-diyl)bis(methylene))bis(oxy))bis(5-chloro-2-methoxypyridine-6,3-diyl))bis(methylene))bis(azanediyl))bis(cyclopentane-1-carboxylic acid)]"
4,351,"Cc1c(COc2cc(OCc3cccc(S(C)(=O)=O)c3)c(CN[C@@](C)(CO)C(=O)O)cc2Cl)cccc1-c1cccc(COc2cc(OCc3cccc(S(C)(=O)=O)c3)c(CN[C@@](C)(CO)C(=O)O)cc2Cl)c1C [Example 57, (2S,2′S)-2,2′-((((((2,2′-dimethyl-[1,1′-biphenyl]-3,3′-diyl)bis(methylene))bis(oxy))bis(5-chloro-2-((3-(methylsulfonyl)benzyl)oxy)-4,1-phenylene))bis(methylene))bis(azanediyl))bis(3-hydroxy-2-methylpropanoic acid)]"
5,105,"COc1nc(OCc2cccc(-c3cccc(COc4nc(OC)c(CN[C@H](C(=O)O)[C@@H](C)O)cc4Cl)c3C)c2C)c(Cl)cc1CN[C@H](C(=O)O)[C@@H](C)O [Example 51, (2S,2′S,3R,3′R)-2,2′-((((((2,2′-dimethyl-[1,1′-biphenyl]-3,3′-diyl)bis(methylene))bis(oxy))bis(5-chloro-2-methoxypyridine-6,3-diyl))bis(methylene))bis(azanediyl))bis(3-hydroxybutanoic acid)]"
